In patent publication US7935819B2, “Cyclic urea derivatives, preparation thereof and pharmaceutical use thereof as kinase inhibitors” (Aventis Pharma S.A., priority 2006, dated 2011) one finds IC50 and GI50 data, which are given here for 14 compounds.

Where two headings read alike, the source gives them in different places.

Assay [1] deals with T1, IGF-1R (human cytoplasmic domain fused with GST) (Homo sapiens, UniProt P08069).
T1 construct: The human cytoplasmic domain of IGF-1R was cloned by fusion with glutathione S-transferase (GST); made in house; host or cells: SF21 insect cells (baculovirus, pFastBac-GST)
The assay is described as follows: Kinase IGF-1R test (Test A): inhibition of autophosphorylation of the enzyme, HTRF. It is filed as biochemical. Conditions: 120 μM ATP. How it is done: A) Experimental Protocol for the Kinase IGF-1R Test:
The inhibitory activity of the compounds on IGF1R is determined by measuring the inhibition of autophosphorylation of the enzyme using a time-resolved fluorescence test (HTRF). The human cytoplasmic domain of IGF-1R was cloned by fusion with glutathione S-transferase (GST) in the baculovirus expression vector pFastBac-GST. The protein is expressed in the SF21 cells and purified to about 80% homogeneity. For the enzymatic test, the test compound at 10 mM dissolved in DMSO is diluted in 1/3 steps in a 50 mM Hepes, pH 7.5, 5 mM MnCl2, 50 mM NaCl, 3% Glycerol, 0.025% Tween 20 buffer. To measure the inhibition, the successive dilutions of the compound are preincubated for 30 minutes and 90 minutes in the presence of 5 nM of enzyme, the final DMSO concentration not exceeding 1%. The enzymatic reaction is initiated to have a final ATP concentration of 120 μM, and is stopped after 5 minutes by addition of 100 mM Hepes, pH 7.0 buffer containing 0.4 M of potassium fluoride, 133 mM EDTA, 0.1% BSA, the XL665-labelled antibody anti-GST and the anti-phosphotyrosine antibody conjugated to europium cryptate Eu—K (Cis-Bio Int.). The characteristics of the two fluorophores, XL-665 and Eu—K, are available in G. Mathis et al., Anticancer Research, 1997, 17, pages 3011-3014. The energy transfer between the excited europium cryptate to the acceptor XL665 is proportional to the degree of autophosphorylation of IGF-1R. The specific long-lasting signal of XL-665 is measured in a GENios Pro TECAN plate counter. The inhibition of autophosphorylation of IGF-1R at time 30 minutes and 90 minutes with the test compounds of the invention is calculated relative to a 1% in DMSO control, whose activity is measured in the absence of compound. The curve representing the percentage of inhibition as a function of the log of the concentration is established to determine the concentration corresponding to 50% inhibition (IC50).

Assay [2] concerns the target MEF-IGF1R cells (stable clone transfected with hIGF-1R) (Homo sapiens, UniProt P08069). The assay is described as follows: Proliferation/viability of MEF-IGF1R (Test C), [14C]thymidine incorporation. It is filed as cell-based. Conditions: rhIGF1 100 ng/mL, 72 hours, read-out: Test C IC50. How it is done: C) Measurement of the Proliferation/Viability of MEF-IGF1R
Cell culture: the MEF-IGF1R cells (stable clone of cells transfected with the receptor hIGF-1R) are cultured at 37° C. under 5% CO2 in EMEM medium containing 10% FCS.
Test procedure: the cells are seeded at 5000 cells per well in 96-well Cytostar plates (Amersham) with 0.2 mL of EMEM culture medium at 37° C. for 18 hours. The cells are then washed twice with EMEM medium and left to culture without serum for 24 hours. The compounds are then added at various concentrations in the presence of rhIGF1 (100 ng/mL) and 0.1 μCi of Thymidine [^14C] (specific activity ˜50 mCi/mmol) to give 0.2 mL of volume per well. After incubation for 72 hours in the presence of the compound, at 37° C. under 5% CO2, the incorporation of Thymidine [^14C] is measured by counting the radioactivity on a Microbeta trilux counter (Perkin-Elmer). The IC50 is determined from 10 increasing concentrations of the compound.
(§1) (i) The tests are performed in duplicate and the mean of the two tests is calculated.
(§2) (ii) The value of the signal of the maximum response is calculated from the positive control: cells stimulated with IGF1 without compound.
(§3) (iii) Value of the signal of the minimum response is calculated from the negative control: cells not stimulated with IGF1 without compound.
(§4) (iv) By using these values as maximum (100%) and minimum (0%), respectively, the data were normalized so as to give a percentage of the maximum response.
(§5) (v) A curve of dose response is plotted and the IC50 (the concentration of which the compound induces a 50% decrease in the signal) of the compound is calculated by non-linear regression analysis.
A general note: Dividing cells build labelled thymidine or BrdU into new DNA.

Another assay deals with T2, IGF1R in MCF-7 cells (Homo sapiens, UniProt P08069).
T2 construct: endogenous in cells; host or cells: MCF-7 cells
The assay is described as follows: Autophosphorylation of IGF-1R in MCF7 cells after stimulation with IGF-1 (Test B), ELISA. In kind it is cell-based. Conditions: compound added one hour before IGF1 stimulation (10 minutes). How it is done: B) Measurement of the Autophosphorylation of IGF-1r in MCF7 Cells after Stimulation with IGF-1
Cell Culturing and Execution of the Test:
The autophosphorylation of IGF1R in the IGF1-induced cells is evaluated by means of an ELISA technique (Enzyme Linked ImmunoSorbent Assay). The MCF-7 are seeded at 60 000 cells per well in 6-well plates and incubated at 37° C., 5% CO2 in medium containing 10% serum. After one night in 10% serum, the cells are deprived of serum for 24 hours. The compounds are added to the medium one hour before stimulation with IGF1. After 10 minutes of stimulation with IGF1, the cells are lysed with a buffer (Hepes 50 mM pH 7.6, Triton X100 1%, orthovanadate 2 mM, protease inhibitor cocktail). The cell lysates are incubated on a 96-well plate precoated with an anti-IGF1R antibody, followed by incubation with an anti-phosphotyrosine antibody coupled to the enzyme peroxidase. The level of peroxidase activity (measured by OD with a luminescent substrate) reflects the phosphorylation status of the receptor.
as §1, §2, §3, §4, §5
(ELISA stands for enzyme-linked immunosorbent assay.)

Setting [3] is: preincubation with enzyme 30 minutes, read-out: Test A 30′ IC50.
The mark [4] stands for this setting: preincubation with enzyme 90 minutes, read-out: Test A 90′ IC50.

T2 sequence (P08069 31-1367): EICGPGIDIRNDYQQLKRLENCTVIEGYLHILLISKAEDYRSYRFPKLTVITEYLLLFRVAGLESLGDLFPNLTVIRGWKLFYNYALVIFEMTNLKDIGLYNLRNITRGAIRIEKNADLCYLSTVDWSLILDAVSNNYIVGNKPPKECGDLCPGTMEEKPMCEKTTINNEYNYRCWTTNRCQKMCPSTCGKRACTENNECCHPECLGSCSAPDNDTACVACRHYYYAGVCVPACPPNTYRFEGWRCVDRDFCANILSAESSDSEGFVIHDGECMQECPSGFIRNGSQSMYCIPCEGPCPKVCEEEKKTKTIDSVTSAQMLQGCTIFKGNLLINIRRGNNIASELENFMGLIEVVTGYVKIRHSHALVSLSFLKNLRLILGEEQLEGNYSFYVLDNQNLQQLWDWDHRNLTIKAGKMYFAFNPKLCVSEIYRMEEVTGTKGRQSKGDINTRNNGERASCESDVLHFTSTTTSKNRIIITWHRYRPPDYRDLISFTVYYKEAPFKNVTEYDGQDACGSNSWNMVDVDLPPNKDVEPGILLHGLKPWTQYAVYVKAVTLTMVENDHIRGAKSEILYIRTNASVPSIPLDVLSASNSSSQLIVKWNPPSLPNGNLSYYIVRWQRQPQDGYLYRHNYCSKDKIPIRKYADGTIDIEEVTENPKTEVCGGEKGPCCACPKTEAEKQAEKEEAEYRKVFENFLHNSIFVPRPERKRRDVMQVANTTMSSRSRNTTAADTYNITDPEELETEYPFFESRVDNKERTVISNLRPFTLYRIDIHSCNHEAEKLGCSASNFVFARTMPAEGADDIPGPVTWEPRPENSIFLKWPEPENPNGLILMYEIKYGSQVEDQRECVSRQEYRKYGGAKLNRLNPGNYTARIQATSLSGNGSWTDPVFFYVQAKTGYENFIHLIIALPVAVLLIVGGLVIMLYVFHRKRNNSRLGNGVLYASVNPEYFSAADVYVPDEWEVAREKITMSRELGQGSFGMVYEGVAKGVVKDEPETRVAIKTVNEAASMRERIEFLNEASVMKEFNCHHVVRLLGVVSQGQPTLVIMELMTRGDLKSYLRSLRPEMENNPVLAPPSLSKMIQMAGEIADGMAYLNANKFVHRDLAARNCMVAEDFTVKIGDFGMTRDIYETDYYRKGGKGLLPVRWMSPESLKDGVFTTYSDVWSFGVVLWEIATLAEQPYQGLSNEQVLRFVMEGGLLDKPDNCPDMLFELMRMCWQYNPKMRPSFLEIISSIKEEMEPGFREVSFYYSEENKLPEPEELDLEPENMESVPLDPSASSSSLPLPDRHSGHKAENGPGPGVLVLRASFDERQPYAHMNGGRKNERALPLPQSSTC
Sequence of MEF-IGF1R cells (stable clone transfected with hIGF-1R) (P08069 whole entry, change not shown): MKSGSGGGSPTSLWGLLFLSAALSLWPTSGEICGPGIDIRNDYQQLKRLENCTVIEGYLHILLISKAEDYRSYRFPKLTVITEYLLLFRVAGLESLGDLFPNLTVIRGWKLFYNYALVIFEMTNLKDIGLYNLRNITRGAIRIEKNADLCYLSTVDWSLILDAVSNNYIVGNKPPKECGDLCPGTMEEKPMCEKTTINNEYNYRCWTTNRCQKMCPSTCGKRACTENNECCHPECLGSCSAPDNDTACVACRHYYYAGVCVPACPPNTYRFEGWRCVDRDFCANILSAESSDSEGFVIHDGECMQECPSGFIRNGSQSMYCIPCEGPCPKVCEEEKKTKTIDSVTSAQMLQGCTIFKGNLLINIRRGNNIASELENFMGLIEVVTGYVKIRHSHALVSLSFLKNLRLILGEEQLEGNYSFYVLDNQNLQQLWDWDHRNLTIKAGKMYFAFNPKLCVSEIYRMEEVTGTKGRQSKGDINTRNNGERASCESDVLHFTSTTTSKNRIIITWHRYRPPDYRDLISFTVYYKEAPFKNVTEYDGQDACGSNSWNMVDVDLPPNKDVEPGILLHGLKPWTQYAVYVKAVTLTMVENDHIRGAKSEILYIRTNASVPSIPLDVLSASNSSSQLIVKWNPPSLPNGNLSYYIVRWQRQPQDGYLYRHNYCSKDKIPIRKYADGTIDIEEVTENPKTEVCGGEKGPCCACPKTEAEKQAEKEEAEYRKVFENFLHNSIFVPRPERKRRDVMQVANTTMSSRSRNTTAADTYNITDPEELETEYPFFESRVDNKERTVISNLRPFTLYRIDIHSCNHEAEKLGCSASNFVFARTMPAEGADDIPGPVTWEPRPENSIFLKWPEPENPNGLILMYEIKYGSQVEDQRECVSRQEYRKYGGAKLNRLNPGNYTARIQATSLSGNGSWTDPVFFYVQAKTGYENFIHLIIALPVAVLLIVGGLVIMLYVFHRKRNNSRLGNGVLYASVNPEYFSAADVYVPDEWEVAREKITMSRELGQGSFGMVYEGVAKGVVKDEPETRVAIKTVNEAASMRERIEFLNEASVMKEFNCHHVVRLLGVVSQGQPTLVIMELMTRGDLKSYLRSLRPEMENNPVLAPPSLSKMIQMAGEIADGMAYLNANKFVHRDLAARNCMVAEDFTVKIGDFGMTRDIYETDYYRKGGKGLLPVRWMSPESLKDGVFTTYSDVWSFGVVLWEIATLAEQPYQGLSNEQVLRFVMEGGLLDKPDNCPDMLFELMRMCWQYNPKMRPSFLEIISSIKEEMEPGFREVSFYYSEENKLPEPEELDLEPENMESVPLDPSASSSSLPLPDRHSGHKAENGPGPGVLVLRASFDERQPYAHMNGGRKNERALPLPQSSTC
T1 sequence (P08069 960-1367 limits assumed): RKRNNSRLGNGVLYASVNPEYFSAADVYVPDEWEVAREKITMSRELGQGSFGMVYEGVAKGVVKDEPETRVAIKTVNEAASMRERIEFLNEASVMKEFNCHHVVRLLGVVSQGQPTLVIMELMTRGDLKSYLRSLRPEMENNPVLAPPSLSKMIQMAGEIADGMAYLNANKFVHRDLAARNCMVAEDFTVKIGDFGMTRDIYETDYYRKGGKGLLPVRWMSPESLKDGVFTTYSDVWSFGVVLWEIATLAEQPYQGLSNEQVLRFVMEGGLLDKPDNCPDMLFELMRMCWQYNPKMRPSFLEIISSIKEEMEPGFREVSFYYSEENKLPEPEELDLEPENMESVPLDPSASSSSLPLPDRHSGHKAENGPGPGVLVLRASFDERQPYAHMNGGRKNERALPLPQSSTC

For orientation: IC50 means the concentration at which inhibition is half-maximal. With `CC(C)(C)c1ccc(N2C(=O)N(Cc3ccnc(Nc4cccnc4)n3)C(C)(C)C2=O)cc1` [Example 1, 3-(4-tert-butylphenyl)-5,5-dimethyl-1-[2-(pyridin-3-ylamino)pyrimidin-4-ylmethyl]imidazolidine-2,4-dione], the figures for the IC50 (in assay [1] (setting [3]); in assay [1] (setting [4]); at IGF1R in MCF-7 cells) were 10 to 100 nM, below 10 nM and below 10 nM, respectively. Also, in assay [2], the GI50 was below 10 nM.
With `CC(C)(C)c1ccc(N2C(=O)N(Cc3ccnc(Nc4cncnc4)n3)C(C)(C)C2=O)cc1` [Example 8, 3-(4-tert-butylphenyl)-5,5-dimethyl-1-{[2-(pyrimidin-5-ylamino)pyrimidin-4-yl]methyl}imidazolidine-2,4-dione], the IC50 in assay [1] (setting [3]) is 10 to 100 nM; in assay [1] (setting [4]) it was below 10 nM; at IGF1R in MCF-7 cells it was below 10 nM. Moreover, the GI50 in assay [2] is below 10 nM.
Regarding `CC(C)(C)c1ccc(N2C(=O)N(Cc3ccnc(NC(=O)NC4CC4)c3)C(C)(C)C2=O)cc1` [Example 13, 1-(4-{[3-(4-tert-butylphenyl)-5,5-dimethyl-2,4-dioxoimidazolidin-1-yl]methyl}pyridin-2-yl)-3-cyclopropylurea], the half-inhibitory concentration (IC50) (in assay [1] (setting [3]); in assay [1] (setting [4]); against IGF1R in MCF-7 cells) was 10 to 100 nM throughout. Also, in assay [2], the GI50 was 10 to 100 nM.
`CC(C)(C)c1ccc(N2C(=O)N(Cc3ccnc(NC(=O)NC4CCC4)c3)C(C)(C)C2=O)cc1` [Example 14, 1-(4-{[3-(4-tert-butylphenyl)-5,5-dimethyl-2,4-dioxoimidazolidin-1-yl]methyl}pyridin-2-yl)-3-cyclobutylurea]: the IC50 (in assay [1] (setting [3]); in assay [1] (setting [4]); on IGF1R in MCF-7 cells) was 10 to 100 nM each time. In addition, in assay [2], the GI50 is 10 to 100 nM.
As for `CC(C)(C)c1ccc(N2C(=O)N(Cc3ccnc(NC(=O)N4CCC4)c3)C(C)(C)C2=O)cc1` [Example 18, N-(4-{[3-(4-tert-butylphenyl)-5,5-dimethyl-2,4-dioxoimidazolidin-1-yl]methyl}pyridin-2-yl)azetidine-1-carboxamide], the half-maximal inhibitory concentration (IC50) in assay [1] (setting [3]) was 10 to 100 nM; in assay [1] (setting [4]), 10 to 100 nM; on IGF1R in MCF-7 cells, below 10 nM. Moreover, the GI50 in assay [2] fell in the range of 10 to 100 nM.
With `CC(C)(C)c1ccc(N2C(=O)N(Cc3ccnc(NC(=O)N4CCCC4)c3)C(C)(C)C2=O)cc1` [Example 19, N-(4-{[3-(4-tert-butylphenyl)-5,5-dimethyl-2,4-dioxoimidazolidin-1-yl]methyl}pyridin-2-yl)pyrrolidine-1-carboxamide], the 50% inhibitory concentration (IC50) in assay [1] (setting [3]) is 10 to 100 nM; in assay [1] (setting [4]), 10 to 100 nM; at IGF1R in MCF-7 cells, below 10 nM. Further, the GI50 in assay [2] was in the range of 10 to 100 nM.
On to `CCCCNC(=O)Nc1cc(CN2C(=O)N(c3ccc(C(C)(C)C)cc3)C(=O)C2(C)C)ccn1` [Example 28, 1-butyl-3-(4-{[3-(4-tert-butylphenyl)-5,5-dimethyl-2,4-dioxoimidazolidin-1-yl]methyl}pyridin-2-yl)urea], for which the IC50 (in assay [1] (setting [3]); in assay [1] (setting [4]); against IGF1R in MCF-7 cells) was 10 to 100 nM each time. For the same compound, in assay [2], the GI50 was above 100 nM.
Regarding `CN(C)CC(=O)N1CC(C)(C)c2ccc(N3C(=O)N(Cc4ccnc(Nc5cccnc5)c4)C(C)(C)C3=O)cc21` [Example 31B, 3-[1-(N,N-dimethylglycyl)-3,3-dimethyl-2,3-dihydro-1H-indol-6-yl]-5,5-dimethyl-1-{[2-(pyridin-3-ylamino)pyridin-4-yl]methyl}imidazolidine-2,4-dione], the IC50 in assay [1] (setting [3]) is above 100 nM; in assay [1] (setting [4]) it was 10 to 100 nM; against IGF1R in MCF-7 cells it was 10 to 100 nM. The GI50 in assay [2] is below 10 nM.
On to `CN(C)CC(=O)N1CC(C)(C)c2ccc(N3C(=O)N(Cc4ccnc(NC(=O)N(C)C)c4)C(C)(C)C3=O)cc21` [Example 31C, 3-[4-({3-[1-(N,N-dimethylglycyl)-3,3-dimethyl-2,3-dihydro-1H-indol-6-yl]-5,5-dimethyl-2,4-dioxoimidazolidin-1-yl}methyl)pyridin-2-yl]-1,1-dimethylurea], for which the concentration for half-maximal inhibition (IC50) is above 100 nM in assay [1] (setting [3]), above 100 nM in assay [1] (setting [4]) and 10 to 100 nM on IGF1R in MCF-7 cells. The GI50 in assay [2] was in the range of 10 to 100 nM.
In the case of `CC(C)NCC(=O)N1CC(C)(C)c2ccc(N3C(=O)N(Cc4ccnc(Nc5cccnc5)c4)C(C)(C)C3=O)cc21` [Example 31D, 3-[1-(N-isopropylglycyl)-3,3-dimethyl-2,3-dihydro-1H-indol-6-yl]-5,5-dimethyl-1-{[2-(pyridin-3-ylamino)pyridin-4-yl]methyl}imidazolidine-2,4-dione], the figures for the IC50 (in assay [1] (setting [3]); in assay [1] (setting [4]); against IGF1R in MCF-7 cells) were above 100 nM, 10 to 100 nM and 10 to 100 nM, respectively. Besides, in assay [2], the GI50 is 10 to 100 nM.
Consider `CC(C)NCC(=O)N1CC(C)(C)c2ccc(N3C(=O)N(Cc4ccnc(NC(=O)N(C)C)c4)C(C)(C)C3=O)cc21` [Example 31E, 3-[4-({3-[1-(N-isopropylglycyl)-3,3-dimethyl-2,3-dihydro-1H-indol-6-yl]-5,5-dimethyl-2,4-dioxoimidazolidin-1-yl}methyl)pyridin-2-yl]-1,1-dimethylurea], for which the figures for the IC50 (in assay [1] (setting [3]); in assay [1] (setting [4]); against IGF1R in MCF-7 cells) were above 100 nM, above 100 nM and 10 to 100 nM, respectively. Moreover, in assay [2], the GI50 was in the range of 10 to 100 nM.
With `CC(C)(C)c1ccc(N2C(=O)N(Cc3ccnc(Nc4ccc(CN5CCCC5)cc4)c3)C(C)(C)C2=O)cc1` [Example 31F, 3-(4-tert-butylphenyl)-5,5-dimethyl-1-[(2-{[4-(pyrrolidin-1-ylmethyl)phenyl]amino}pyridin-4-yl)methyl]imidazolidine-2,4-dione], the half-inhibitory concentration (IC50) in assay [1] (setting [3]) was 10 to 100 nM; in assay [1] (setting [4]), below 10 nM; at IGF1R in MCF-7 cells, 10 to 100 nM. Moreover, the GI50 in assay [2] is below 10 nM.
As to `CC(C)(C)c1ccc(N2C(=O)N(Cc3ccnc(Nc4cccc(CN5CCCC5)c4)c3)C(C)(C)C2=O)cc1` [Example 31G, 3-(4-tert-butylphenyl)-5,5-dimethyl-1-[(2-{[3-(pyrrolidin-1-ylmethyl)phenyl]amino}pyridin-4-yl)methyl]imidazolidine-2,4-dione], the IC50 in assay [1] (setting [3]) is 10 to 100 nM; in assay [1] (setting [4]), below 10 nM; against IGF1R in MCF-7 cells, 10 to 100 nM. Also, the GI50 in assay [2] is below 10 nM.
In the case of `CC(C)(C)c1ccc(N2C(=O)N(Cc3ccnc(Nc4cccc(CCN5CCCC5)c4)c3)C(C)(C)C2=O)cc1` [Example 31H, 3-(4-tert-butylphenyl)-5,5-dimethyl-1-[(2-{[3-(2-pyrrolidin-1-ylethyl)phenyl]amino}pyridin-4-yl)methyl]imidazolidine-2,4-dione], the IC50 in assay [1] (setting [3]) was 10 to 100 nM; in assay [1] (setting [4]), below 10 nM; against IGF1R in MCF-7 cells, below 10 nM. In assay [2], the GI50 was below 10 nM.
